One experiment relates to bovine SVF cells. The experiment can be described thus: retinoic acid induced inhibition of the differentiation of bovine SVF cells to adipocytes, Oil Red O staining. The experiment is classed as cell-based. The conditions noted are these: for Oil Red O absorbance (OD minus blank), well1 / Oil Red O absorbance (OD minus blank), well2 / Oil Red O absorbance (OD minus blank), average / lipid accumulation compared with control cells: bovine SVF cells; for Oil Red O absorbance (OD minus blank), well1 / Oil Red O absorbance (OD minus blank), well2 / Oil Red O absorbance (OD minus blank), average: OD 530 nm, day 13; for Oil Red O absorbance (OD minus blank), average: control average 0.4465. As to the method: The efficiency of the RAR antagonists compounds No. 1, 3, 4 and 5 in blocking the antiadipogenic effect of ATRA on bovine cells was investigated. The cells used in this experiment were from a primary culture of the stromal-vascular fraction isolated from intramuscular fat of an Angus steer.
To assess the adipocyte differentiation state, the cells of a 12-well plate were stained with “Oil Red O” and after conveniently extraction of the dye from the lipid droplets the absorbance was measured with a microplate reader.
Cells of a bovine stromal-vascular fraction from intramuscular fat (passage 4) of one flask (75 cm^2) were trypsinized by treating the adherent cells with 2 ml 0.25% Trypsin-EDTA. The reaction was stopped with growth medium (DMEM, 1% (v/v) of antibiotic solution, 50 μg/ml gentamicin sulfate, 33 μM biotin, 17 μM D-pantothenate, 100 μM (+)-sodium L-ascorbate and 10% FCS heat inactivated) and 1.5 ml of this cell suspension were added to each well of a 12-well-plate. Cells were incubated at 37° C./5% CO2 in an incubator.
One day after cells reach confluency the growth medium was removed and adipogenesis initiation medium (growth medium/0.25 μM Dexamethasone/10 μg/ml Insulin/1 μM rosiglitazone) was added into 2 wells (i.e., in duplicate) without further compounds. Adipogenesis initiation medium additionally containing 0.1 μM ATRA was added into 2 wells without further compounds and alternative with 1 μM of compound No. 1, compound No. 3, compound No. 4 and compound No. 5 into 2 wells each of the 12-well plate.
After incubation for three days, the adipogenesis initiation medium was removed and 1.5 ml adipogenesis medium (growth medium/10 μg/ml Insulin/1 μM rosiglitazone) containing the substances as indicated above was added per well. The culture medium was replaced twice a week.
Thirteen days after addition of adipogenesis initiation medium the medium was removed and cells of the 12-well plate were fixed and stained with Oil Red O as previously described.
The absorbance is reported in Table 3 and FIG. 2 as the difference of the observed OD of extracted dye at 530 nm and a blank well OD value.

The next experiment concerns 3T3-L1 preadipocyte. The experiment can be described thus: retinoic acid induced inhibition of 3T3-L1-preadipocyte differentiation, Oil Red O staining of lipid droplets. The experiment is classed as cell-based, mouse. The settings on record: for Oil Red O absorbance (OD minus blank), well1 / Oil Red O absorbance (OD minus blank), well2 / Oil Red O absorbance (OD minus blank), average: OD 492 nm; for Oil Red O absorbance (OD minus blank), well1 / Oil Red O absorbance (OD minus blank), well2: day 9; for Oil Red O absorbance (OD minus blank), average: day 9, control average 0.5263. As to the method:
The effectiveness of the RAR alpha antagonists Compounds No. 2, 3 and 4 and the RAR pan antagonist Compound No. 1 in blocking the inhibitory effect of all-trans retinoic acid (ATRA) on 3T3-L1 preadipocyte differentiation was investigated.
In this experiment the “Oil Red O”-staining of lipid droplets is used as indicator of the degree of adipogenesis. After conveniently extraction of the dye from the lipid droplets the absorbance was measured with a microplate reader.
3T3-L1-cells (passage 7) of one flask (75 cm^2) were trypsinized by treating the adherent cells with 2 ml 0.25% Trypsin-EDTA. The reaction was stopped with fibroblast growth medium (DMEM/10% Newborn Calf Serum/1% Penicillin/Streptomycin) and 1 ml of this cellsuspension were added to each well of a 12-well-plate. Cells were incubated at 37° C./5% CO2 in an incubator.
One day after cells reach confluency the fibroblast growth medium was removed and adipogenesis initiation medium (DMEM/10% FBS/1 μM Dexamethasone/0.5 mM IBMX/1 μg/ml Insulin) was added into 2 wells (i.e., in duplicate) without further substances (control), into 2 wells with 0.1 μM ATRA+ alternative 1 μM of compound No. 4, Compound No. 2, Compound No. 3 and 1 into 2 wells with 0.1 μM ATRA.
After incubation for two days, the adipogenesis initiation medium was removed and 1.5 ml adipogenesis medium (DMEM/10% FBS/1 μg/ml Insulin) containing the substances as indicated above was added per well. After another three days of incubation, the medium was replaced by adipogenesis medium without any additional substances. The culture medium was replaced every 2 or 3 days.
Nine days after addition of adipogenesis initiation medium, the medium was removed from all wells. Cells were fixed and stained with Oil Red O as follows:
Fix the cells in 10% formalin in PBS, remove formalin, dry completely, wash with PBS, dry at room temperature; Prepare Oil red O working solution by diluting 3 parts Oil Red O stock solution with 2 parts dH2O; Add Oil red O working solution for 1 hour; Remove all Oil Red O and immediately add dH2O, wash with dH2O until water is colourless; Wash with 60% isopropanol, dry completely at room temperature; elute Oil red O by adding 60% isopropaniol/4% Triton X-100 solution for 1.5 hours; transfer to 96 well plate; measure absorption (optical density—OD) at 492 nm (Tecan Spectraflour plus)
The absorbance is reported in Table 2 and FIG. 1 as the difference of the observed OD of extracted dye at 492 nm and a blank well OD value.

The next experiment deals with RARs. The experiment in a line: agonistic activity on RARs. The experiment is classed as cell-based.
A further experiment deals with T1, RARα (Homo sapiens, UniProt P10276).
T1 sequence (P10276 1-462): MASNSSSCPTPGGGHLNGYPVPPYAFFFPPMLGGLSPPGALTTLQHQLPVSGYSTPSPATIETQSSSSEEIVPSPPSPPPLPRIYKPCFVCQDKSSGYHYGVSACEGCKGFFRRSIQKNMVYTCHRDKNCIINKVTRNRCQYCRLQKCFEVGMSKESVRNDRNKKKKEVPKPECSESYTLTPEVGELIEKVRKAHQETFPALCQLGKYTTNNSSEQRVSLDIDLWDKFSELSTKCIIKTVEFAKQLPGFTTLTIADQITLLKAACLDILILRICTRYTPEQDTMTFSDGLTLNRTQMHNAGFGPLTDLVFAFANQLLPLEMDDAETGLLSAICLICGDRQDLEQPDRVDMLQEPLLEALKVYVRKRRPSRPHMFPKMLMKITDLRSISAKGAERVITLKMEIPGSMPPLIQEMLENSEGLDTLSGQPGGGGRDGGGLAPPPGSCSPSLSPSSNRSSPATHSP
The experiment can be described thus: luciferase based RA responsive reporter assay, RARα. The class given is cell-based. The settings on record: antagonist. (In general: Reporter assays use an easily measured gene product as a stand-in for the process of interest.)

A further experiment has as its target T2, RARγ (Homo sapiens, UniProt P13631).
T2 sequence (P13631 1-454): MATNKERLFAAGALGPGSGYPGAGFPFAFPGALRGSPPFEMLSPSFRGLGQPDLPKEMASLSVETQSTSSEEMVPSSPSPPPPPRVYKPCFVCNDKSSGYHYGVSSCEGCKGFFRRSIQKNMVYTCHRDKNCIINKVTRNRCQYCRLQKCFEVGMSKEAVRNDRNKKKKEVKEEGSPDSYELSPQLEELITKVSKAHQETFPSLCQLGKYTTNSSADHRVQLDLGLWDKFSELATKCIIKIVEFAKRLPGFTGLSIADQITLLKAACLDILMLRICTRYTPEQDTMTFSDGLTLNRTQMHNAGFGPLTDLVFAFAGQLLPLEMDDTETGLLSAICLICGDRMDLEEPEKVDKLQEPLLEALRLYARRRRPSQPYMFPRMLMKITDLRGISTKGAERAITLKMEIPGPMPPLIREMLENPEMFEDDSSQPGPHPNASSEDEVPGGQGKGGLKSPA
The experiment can be described thus: luciferase based RA responsive reporter assay, RARγ. The settings on record: antagonist. The experiment is classed as cell-based.

For another experiment, the target named is T3, RARβ (Homo sapiens, UniProt P10826).
T3 sequence (P10826 1-455): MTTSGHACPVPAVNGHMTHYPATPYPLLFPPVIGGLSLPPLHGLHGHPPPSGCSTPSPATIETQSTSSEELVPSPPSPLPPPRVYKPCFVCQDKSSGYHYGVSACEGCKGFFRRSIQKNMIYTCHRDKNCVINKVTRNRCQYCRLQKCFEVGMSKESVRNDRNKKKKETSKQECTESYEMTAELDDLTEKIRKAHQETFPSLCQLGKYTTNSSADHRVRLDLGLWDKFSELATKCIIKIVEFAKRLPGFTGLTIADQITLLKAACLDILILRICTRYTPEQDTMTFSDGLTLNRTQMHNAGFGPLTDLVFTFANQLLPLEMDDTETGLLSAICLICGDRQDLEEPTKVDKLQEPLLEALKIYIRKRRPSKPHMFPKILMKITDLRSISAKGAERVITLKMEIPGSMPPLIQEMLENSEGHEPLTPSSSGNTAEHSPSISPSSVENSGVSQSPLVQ
The experiment can be described thus: luciferase based RA responsive reporter assay, RARβ. The class given is cell-based. The settings on record: antagonist.

For `CC1=C(/C=C/C(C)=C/C=C/C(C)=C/C(=O)O)C(C)(C)CCC1` [ATRA, all-trans retinoic acid], in the experiment on bovine SVF cells (ATRA 0.1 μM alone), the “Oil Red O absorbance (OD minus blank), well1” value was 0.1409; the “Oil Red O absorbance (OD minus blank), well2” value is listed as 0.1924; the “Oil Red O absorbance (OD minus blank), average” value is recorded as 0.1667. Also, in the experiment with bovine SVF cells (ATRA 0.1 μM alone, bovine cells), the “amount of Oil Red O stainable lipid droplets” value is “clearly decreased”. Also, in the experiment on 3T3-L1 preadipocyte (ATRA 0.1 μM alone), the “amount of differentiated lipid-containing adipocytes” value is recorded as “significantly reduced”; the “Oil Red O absorbance (OD minus blank), well1” value was found to be 0.0925; the “Oil Red O absorbance (OD minus blank), well2” value was 0.0727; the “Oil Red O absorbance (OD minus blank), average” value worked out at 0.0826.
Consider `Cc1ccc(C2=CCC(C)(C)c3ccc(C#Cc4ccc(C(=O)O)cc4)cc32)cc1` [Compound No. 1], for which, in the experiment on bovine SVF cells (1 μM compound + 0.1 μM ATRA), the “lipid accumulation compared with control cells” value is listed as “lipid accumulation of control cells is not reached”; the “Oil Red O absorbance (OD minus blank), well1” value was found to be 0.2849; the “Oil Red O absorbance (OD minus blank), well2” value amounted to 0.3493; the “Oil Red O absorbance (OD minus blank), average” value is reported as 0.3171. In the experiment with 3T3-L1 preadipocyte (1 μM compound + 0.1 μM ATRA), the “Oil Red O absorbance (OD minus blank), well1” value turned out to be 0.1736; the “Oil Red O absorbance (OD minus blank), well2” value came out at 0.1792; the “Oil Red O absorbance (OD minus blank), average” value is 0.1764.
Take `Cc1ccc(C2=CC(C)(C)Oc3c(Br)cc(C(=O)Nc4cc(F)c(C(=O)O)c(F)c4)cc32)cc1` [Compound No. 2]: in the experiment on 3T3-L1 preadipocyte (1 μM compound + 0.1 μM ATRA), the “Oil Red O absorbance (OD minus blank), well1” value is reported as 0.2264; the “Oil Red O absorbance (OD minus blank), well2” value came to 0.2267; the “Oil Red O absorbance (OD minus blank), average” value was found to be 0.2266.
Regarding `CC1(C)CC=C(c2cnc3ccccc3c2)c2cc(C(=O)Nc3ccc(C(=O)O)cc3)ccc21` [Compound No. 3], in the experiment on bovine SVF cells (1 μM compound + 0.1 μM ATRA), the “lipid accumulation compared with control cells” value is listed as “lipid accumulation of control cells is not reached”; the “Oil Red O absorbance (OD minus blank), well1” value was 0.3504; the “Oil Red O absorbance (OD minus blank), well2” value is 0.4044; the “Oil Red O absorbance (OD minus blank), average” value was 0.3774. Besides, in the experiment on 3T3-L1 preadipocyte (1 μM compound + 0.1 μM ATRA), the “Oil Red O absorbance (OD minus blank), well1” value is listed as 0.3589; the “Oil Red O absorbance (OD minus blank), well2” value was 0.2996; the “Oil Red O absorbance (OD minus blank), average” value was determined as 0.3293.
As usually defined, the IC50 is the concentration that gives 50% inhibition. With `Cc1ccc(C2=CC(C)(C)Oc3c(Br)cc(C(=O)Nc4ccc(C(=O)O)cc4)cc32)cc1` [Compound No. 4, 4-[[8-bromo-2,2-dimethyl-4-(p-tolyl)chromene-6-carbonyl]amino]benzoic acid], the “Oil Red O absorbance (OD minus blank), well1” value in the experiment with bovine SVF cells (1 μM compound + 0.1 μM ATRA) is recorded as 0.5411; with 3T3-L1 preadipocyte (1 μM compound + 0.1 μM ATRA) it was 0.3361. The “Oil Red O absorbance (OD minus blank), well2” value in the experiment on bovine SVF cells (1 μM compound + 0.1 μM ATRA) is 0.6229; in the experiment on 3T3-L1 preadipocyte (1 μM compound + 0.1 μM ATRA), 0.3571. For the same compound, the figures for the “Oil Red O absorbance (OD minus blank), average” value with bovine SVF cells (1 μM compound + 0.1 μM ATRA) and in the experiment on 3T3-L1 preadipocyte (1 μM compound + 0.1 μM ATRA) were 0.5820 and 0.3466, respectively. Besides, the “agonistic activity on RARs” value in the experiment with RARs is “lacks any significant agonistic activity”. The IC50 against RARα is 4 nM; against RARγ it was 2350 nM; at RARβ it was 2980 nM.
For the compound `CN1c2cc3c(cc2N=C(c2ccc(C(=O)O)cc2)c2ccc4ccccc4c21)C(C)(C)CCC3(C)C` [Compound No. 5], in the experiment on bovine SVF cells (1 μM compound + 0.1 μM ATRA), the “lipid accumulation compared with control cells” value is “lipid accumulation of control cells is not reached”; the “Oil Red O absorbance (OD minus blank), well1” value came out at 0.2915; the “Oil Red O absorbance (OD minus blank), well2” value came to 0.3318; the “Oil Red O absorbance (OD minus blank), average” value is 0.3117.

The record behind these values is patent US20140094512A1, “METHOD OF MODULATING THE DEGREE OF ADIPOSE TISSUE DEPOSITED INTRAMUSCULARLY” (priority 2012, published 2014).
